These compounds were tested on Plasmodium falciparum (assay: GSK_TCMDC: Inhibition of Plasmodium falciparum 3D7 in whole erythrocytes, using parasite LDH activity as an index of growth.). Settings: Plasmodium falciparum, 3D7.
Format: functional, organism-based

Structure (SMILES) | XC50
COc1ccc2c(N/N=C/c3cccc([N+](=O)[O-])c3)ccnc2c1 | 846 nM
CCN1CCC(N(Cc2ccc(-c3ccc(C(F)(F)F)cc3)cc2)C(=O)Cn2c(CCc3cccc(F)c3F)cc(=O)c3ccc(OCc4ccccc4)cc32)CC1 | 368 nM
CN1CCC(N(Cc2ccc(-c3ccc(C(F)(F)F)cc3)nc2)C(=O)Cn2c(CCc3cccc(F)c3F)cc(=O)c3ccccc32)CC1 | 1100 nM
CC(C)(C)NCc1cc(Nc2ccnc3cc(Cl)ccc23)ccc1F | 30.3 nM
O=C(Nc1ccccc1)Nc1cccc(-c2nn3c(OCC4CCCCN4)cccc3c2-c2ccncc2)c1 (centres undefined) | 858 nM
Cc1cccc2nc(-c3cccc(-c4ccc(NC(=O)NC5CC5c5ccccc5)cc4)c3)[nH]c12 (centres undefined) | 719 nM
O=c1[nH]ccc2nc(N[C@@H]3CCNC3)nc(Nc3cc(Cl)cc(Cl)c3)c12 | 738 nM
COc1ccc(N2CCN(CCCCNC(=O)c3ccc(NC(=O)c4cc(C(F)(F)F)cc(C(F)(F)F)c4)cc3)CC2)c(OC)c1 | 153 nM
COc1ccc(CN2CCC(Oc3cccc(NC(=O)c4ccc(C(F)(F)F)cc4)c3)CC2)cc1 | 743 nM
Cc1[nH]c(C)c(-c2cc3ccccc3o2)c(=O)c1Cl | 1720 nM
CCCC1N=C(N)N=C(N)N1c1ccc(C)c(C)c1 (centres undefined) | 73.6 nM
COc1cc(C2CCN(CCCCNC(=O)c3ccc(NC(=O)c4cc(C(F)(F)F)cc(C(F)(F)F)c4)cc3)CC2)ccc1OC(C)C | 154 nM
O=C(O)C1Cc2c([nH]c3ccccc23)C(c2ccc(Cl)cc2Cl)N1 (centres undefined) | 954 nM
COc1cccc(CNC(=O)c2ccnc(-c3cccc(CN(C)C4CCN(C)CC4)c3)c2)c1 | 834 nM
COc1ccc(Nc2ccnc3cc(-c4ccccn4)ccc23)cc1OC | 31.8 nM
COc1ccc(S(=O)(=O)NC2CCN(c3ccc(C(F)(F)F)cc3NC(=O)OCC(C)C)CC2)cc1 | 1220 nM
COc1ccc2ncc(F)c([C@H](O)CN3CCC(NCc4ccc5c(c4)NC(=O)CO5)CC3)c2c1 | 172 nM
Cc1cccn2c(=O)c3cc(C(=O)NCc4cccnc4)c(=N)n(CCc4ccccc4)c3nc12 | 714 nM
Cc1cc(-c2ccc3c(c2)CCN(CCC2CCC(NC(=O)/C=C/c4cccc(Cl)c4)CC2)CC3)on1 (centres undefined) | 589 nM
O=C(NCC1CCC(C(=O)NCCc2ccc(Cl)c(Cl)c2)CC1)c1ccc(O)c(-c2ccc(Cl)c(Cl)c2)c1 (centres undefined) | 895 nM
Cc1cc(=O)[nH]c(-n2nc(C)cc2NC(=O)C(c2ccccc2)c2ccccc2)n1 | 839 nM
N=C(N)NN=C1C=Cc2cccc3cccc1c23 | 609 nM
O=C(/C=C/c1ccc(Cl)cc1)NCCCCCN1CCCC(C(=O)Nc2cccc(Cl)c2)C1 (centres undefined) | 208 nM
c1ccc(CCNCc2ccc(-c3ccc(CNC4CCN(Cc5ccccc5)CC4)cc3)nc2)cc1 | 446 nM

Structure (SMILES) | XC50
COc1cc(Nc2nccc(N3CCC(NC(=O)c4cccc(NC(C)=O)c4)C3)n2)cc(OC)c1OC (centres undefined) | 828 nM
CCCCCCN1CCC(NCc2ccc(OCCN3CCCC3)cc2)CC1 | 719 nM
Cc1cc(N2CCC(NS(=O)(=O)c3ccc(F)cc3)CC2)nc(Nc2cccc(C#N)c2)n1 | 651 nM
COc1ccc2[nH]ccc(=NN=Cc3ccc(Cl)cc3)c2c1 | 211 nM
COc1ccc(-c2ccc(NC(=O)c3cccc(Cl)c3)cc2)cc1CN1CCN(C)CC1 | 951 nM
Cc1cccc2nc(-c3ccc(-c4cccc(CN5CCN(c6ccncc6)CC5)c4)s3)[nH]c12 | 126 nM
COc1ccc(Cl)cc1NC(=O)Nc1ccnc2ccccc12 | 675 nM
COc1cc(OC)cc(-c2nn(-c3ccc([N+](=O)[O-])cc3C#N)c(=S)n2CC2CCCO2)c1 (centres undefined) | 852 nM
O=C(Nc1ccccc1)N1CCOC(CCN2CCC(F)(F)CC2)(c2ccc(Cl)c(Cl)c2)C1 (centres undefined) | 185 nM
COc1cc(CNC[C@@H](O)[C@H](Cc2ccccc2)NC(=O)c2cc(OC(C)C)cc(N3CCCCS3(=O)=O)c2)cc(OC)c1 | 590 nM
O=C(Nc1cccc(-c2ccc(-c3nc4cc(C(F)(F)F)ccc4[nH]3)cc2)c1)Nc1ccc(Cl)c(Cl)c1 | 889 nM
Cc1cccc(C)c1N1CCN(C2CCC(NC(=O)/C=C/c3ccccc3)CC2)CC1 (centres undefined) | 1180 nM
Cn1ncc2c3c(CCN4CCC(NCc5ccc6c(c5)NC(=O)CO6)CC4)c(Cl)cnc3ccc21 | 488 nM
N=C(N)NN=Cc1c2ccccc2c(Cl)c2c(Cl)cccc12 | 878 nM
COc1ccc(OCC(=O)Nc2nc(-c3ccc(OC)cc3)c(C)s2)cc1 | 1950 nM
COc1ccc(C(=O)CCC(=O)N(Cc2ccc(-c3ccc(CNCCc4ccc(S(C)(=O)=O)cc4)cn3)cc2)C2CC3CCC2C3)cc1F (centres undefined) | 927 nM
Cc1cc(N(CCCN(C)C)Cc2cc(F)cc(F)c2)nc(Nc2ccc(Cl)cc2)n1 | 536 nM
CCOC(=O)N1CCN(CCCCCNc2cc(C)nc(NC(=N)Nc3ccc(Cl)cc3)n2)CC1 | 149 nM
CNC(=O)Cc1ccc(C(=O)Nc2cccc(-c3cccc(-c4nc5cc(C(F)(F)F)ccc5[nH]4)c3)c2)cc1 | 440 nM
OC(CNC1CCCCC1)c1ccc(Cl)c(Cl)c1 (centres undefined) | 698 nM
COc1ccc2nccc([C@@H](O)CN3CCC(NC(=O)/C=C/c4c[nH]c5c(C)cccc45)CC3)c2c1 | 135 nM
NC(=O)c1ccccc1Nc1nc(Nc2cc[nH]n2)ncc1Cl | 958 nM
Cc1[nH]c2cc(F)ccc2c1C1=CCN(CCCCC2(C)C(=O)Nc3ccccc32)CC1 (centres undefined) | 292 nM
COc1ccc(C2CCN(CCN3CCC(NC(=O)c4ccc(-c5cccc(C(F)(F)F)c5C(F)(F)F)cc4)CC3)CC2)c(OC)c1 | 419 nM

Structure (SMILES) | XC50
Cc1cc(NCCc2ccccc2)nc(N/C(=N/CC(=O)OC(C)(C)C)Nc2ccc(C(F)(F)F)cc2)n1 | 335 nM
O=C(Nc1ccc(OC2CCN(Cc3ccsc3)C2)c(Cl)c1)c1ccc(F)cc1 (centres undefined) | 943 nM
CC(C)c1ccc(-c2noc(SCC(=O)N(C)c3ccc(F)cc3)n2)cc1 | 1170 nM
O=C(NCCN1CCCC1)c1ccc(-c2cccc(-c3nc4cc(F)ccc4[nH]3)c2)cc1 | 774 nM
Cc1nnsc1C(=O)Nc1cccc(-c2csc(-c3nc4ccccc4[nH]3)c2)c1 | 351 nM
COc1ccc2c(c1)CCN(CCN1CCC(CNC(=O)c3ccc(-c4ccc(C#N)cc4)cc3)CC1)C2 | 617 nM
CCN(CCO)CCc1cccc(Nc2nccc(-c3c(-c4ccc(NC(=O)C(C)(C)C)cc4)nn4ccccc34)n2)c1 | 714 nM
COc1cc(N)c(Cl)cc1C(=O)NCC1CCN(c2nc(C)cc(C)n2)CC1 | 509 nM
COc1ccc(-n2nc(C)c3c2NC(=O)CC3c2ccccc2OCc2ccccc2F)cc1 (centres undefined) | 901 nM
O=C(Nc1cc(Cl)ccc1O)c1ccc(Oc2ccc(C(=O)Nc3cc(Cl)ccc3O)cc2)cc1 | 920 nM
COc1ccccc1Cn1ccnc1SCC(=O)Nc1cc(C(F)(F)F)ccc1Cl | 99.9 nM
CC[C@H]1CN2CC[C@H]1C[C@H]2[C@H](O)c1cc(-c2cccc(C)c2)nc2ccc(OC)cc12 | 163 nM
C=Cc1cc(OC)c2c(c1)c(=O)oc1c2cc(OC)c2c(O)ccc([C@H]3O[C@H]([C@H](C)O)[C@H](O)[C@H]3O)c21 | 794 nM
Cc1cc(=NN=Cc2ccccc2Cl)c2cc(C(F)(F)F)ccc2[nH]1 | 858 nM
FC(F)(F)c1cc(Nc2ncnc3ccc(Br)cc23)ccc1OCc1ccccc1 | 1080 nM
Cc1[nH]c(C)c(-c2cccc(-c3ccc(OC(F)(F)F)cc3)c2)c(=O)c1Br | 410 nM
O=C(Nc1cccc(OCCN2CCCC2)c1)Nc1ccc(Cl)c(Cl)c1 | 775 nM
COc1ccc(CCNCC(O)COc2nccc3c(S(=O)(=O)N4CCCNCC4)cccc23)cc1OC (centres undefined) | 269 nM
COc1ccc(C(=O)Nc2nonc2-c2ccc(OC)c(OC)c2)cc1Cl | 675 nM
CC(C)(C)OC(=O)Cn1cnc2cc(NC(=O)c3cc([N+](=O)[O-])cc([N+](=O)[O-])c3)ccc21 | 312 nM
O=c1cnc2ccc(F)cc2n1CCN1CCC(NCc2cc(-c3ccccc3)cs2)CC1 | 863 nM
CCc1cn2c3c(cc(C(=O)N[C@@H](Cc4ccccc4)[C@H](O)CNC(C)(C)c4cccc(OC)c4)cc13)N(C)S(=O)(=O)C2 | 61.7 nM
c1cncc(-c2cc(N3CCc4ccccc4C3)nc(-c3ccncc3)n2)c1 | 40.9 nM
Fc1ccc2c(NN=Cc3ccccc3)ccnc2c1 | 739 nM

Structure (SMILES) | XC50
COc1cc(C(=O)Nc2cccc(-c3cn4ccc(C)cc4n3)c2)cc(OC)c1OC | 761 nM
N=C(N)NN=Cc1cc2ccccc2c2ccccc12 | 180 nM
CCOc1cc(C)ccc1N1CCN(CCN2CCC(NC(=O)c3ccc(-c4ccc(C#N)cc4)cc3)CC2)CC1 | 1430 nM
CCOC(=O)c1ccc(N2CCN(c3cc(C)ccc3C)CC2)c(NC(=O)Nc2ccc(Cl)c(Cl)c2)c1 | 712 nM
c1ccc2[nH]c(-c3ccc(-c4ccc(CNCC5CCCO5)cc4)s3)nc2c1 (centres undefined) | 869 nM
COC(=O)Nc1ccc(-c2ccc(C(=O)NC3CCN(C[C@H](O)c4ccnc5ccc(OC)cc45)CC3)cc2)c(C)c1 | 685 nM
Brc1ccsc1-c1nc(NCCC(c2ccccc2)c2ccccc2)no1 | 1080 nM
Cn1nccc1C(=O)NCCNCc1cccc(-c2ccc(-c3nc4cc(C(F)(F)F)ccc4[nH]3)cc2)c1 | 122 nM
COCCNCc1cccc(-c2cccc(CN(C(=O)Nc3ccccc3)C3CCN(Cc4ccccc4)CC3)c2)c1 | 126 nM
O=C(NCCCc1ccccc1)c1csc(C2CCCN(C(=O)c3ccc(O)c(-c4cccc5ccccc45)c3)C2)n1 (centres undefined) | 967 nM
Cc1cc(N(C)C2CCN(C)C2)nc(Nc2ccccc2Cl)n1 (centres undefined) | 754 nM
CCCNCc1ccc(-c2ccc(CN(CCOC)C(=O)c3cscn3)cc2)nc1 | 178 nM
O=C(/C=C/c1ccc(Cl)c(Cl)c1)NCCCCCN1CCC(CCNC(=O)Cc2ccc(Cl)cc2)CC1 | 1160 nM
CN(c1ccc(NC(=O)Nc2cc(C(C)(C)C)on2)cc1)c1ccnc(NCCN2CCOCC2)n1 | 1120 nM
Cc1ccc(NC(=O)NC2CCN(c3ccnc4cc(Cl)ccc34)CC2)cc1 | 315 nM
N=C(N)NCCCN(Cc1ccccc1)c1ccccc1 | 579 nM
OCc1ccc(-c2cncc(Nc3cccc(Cl)c3)c2)cc1 | 74.3 nM
Cc1nc(N)nc(N)c1Oc1cccc(Cl)c1 | 871 nM
O=C(/C=C/c1ccc(Cl)c(Cl)c1)NCCCCCN1CCC(NC(=O)Nc2ccc(F)c(Cl)c2)CC1 | 619 nM
O=C(Nc1cccc(CN2CCCN(Cc3cccc(Cl)c3)CC2)c1)c1ccc(Cl)c(Cl)c1 | 992 nM
Cc1ccc(S(=O)(=O)c2nc(S(=O)(=O)c3ccccc3)sc2NCC2CCCO2)cc1 (centres undefined) | 1020 nM
O=S(=O)(Nc1cccc(CCN2CCC(N3CCCCC3)CC2)c1)c1ccc(Cl)cc1 | 916 nM

Reference: ChEMBL document CHEMBL1157539, “Thousands of chemical starting points for antimalarial lead identification” (Nature, 2010)
